Reference: ChEMBL document CHEMBL3112480, “γ-Alkylidene-γ-lactones and isobutylpyrrol-2(5H)-ones analogues to rubrolides as inhibitors of biofilm formation by gram-positive and gram-negative bacteria” (Bioorg Med Chem Lett, 2014)
Converted amounts (≈) assume the structure as drawn.

Columns and labels:
[1] = test system: Staphylococcus epidermidis; test: Antibacterial activity against Staphylococcus epidermidis ATCC 35547 assessed as inhibition of biofilm formation after 20 hrs by crystal-violet staining method; format: functional, organism-based; settings: for IC50: ATCC 35547, 20 h
Streptococcus mutans [2] = test: Antibacterial activity against Streptococcus mutans ATCC 25175 assessed as effect on planktonic growth at 43.8 ug/ml after 20 hrs relative to control; format: functional
Pseudomonas aeruginosa [3] = test: Antibacterial activity against Pseudomonas aeruginosa ATCC 27853 assessed as effect on planktonic growth at 10.9 ug/ml after 20 hrs relative to control; format: functional
Pseudomonas aeruginosa [4] = test: Antibacterial activity against Pseudomonas aeruginosa ATCC 27853 assessed as effect on planktonic growth at 0.68 ug/ml after 20 hrs relative to control; format: functional
Staphylococcus aureus [5] = test: Antibacterial activity against Staphylococcus aureus ATCC 25923 assessed as effect on planktonic growth at 0.68 ug/ml after 20 hrs relative to control; format: functional
[6] = test system: Staphylococcus epidermidis; test: Antibacterial activity against Staphylococcus epidermidis ATCC 35547 assessed as effect on planktonic growth at 43.8 ug/ml after 20 hrs relative to control; format: functional
Staphylococcus aureus [7] = test: Antibacterial activity against Staphylococcus aureus ATCC 25923 assessed as effect on planktonic growth at 10.9 ug/ml after 20 hrs relative to control; format: functional
[8] = test system: Staphylococcus epidermidis; test: Antibacterial activity against Staphylococcus epidermidis ATCC 35547 assessed as effect on planktonic growth at 0.68 ug/ml after 20 hrs relative to control; format: functional
Pseudomonas aeruginosa [9] = test: Antibacterial activity against Pseudomonas aeruginosa ATCC 27853 assessed as effect on planktonic growth at 87.5 ug/ml after 20 hrs relative to control; format: functional
[10] = test system: Staphylococcus epidermidis; test: Antibacterial activity against Staphylococcus epidermidis ATCC 35547 assessed as effect on planktonic growth at 87.5 ug/ml after 20 hrs relative to control; format: functional
[11] = test system: Staphylococcus epidermidis; test: Antibacterial activity against Staphylococcus epidermidis ATCC 35547 assessed as effect on planktonic growth at 10.9 ug/ml after 20 hrs relative to control; format: functional
Pseudomonas aeruginosa [12] = test: Antibacterial activity against Pseudomonas aeruginosa ATCC 27853 assessed as effect on planktonic growth at 0.34 ug/ml after 20 hrs relative to control; format: functional
Streptococcus mutans [13] = test: Antibacterial activity against Streptococcus mutans ATCC 25175 assessed as effect on planktonic growth at 0.17 ug/ml after 20 hrs relative to control; format: functional
Staphylococcus aureus [14] = test: Antibacterial activity against Staphylococcus aureus ATCC 25923 assessed as effect on planktonic growth at 43.8 ug/ml after 20 hrs relative to control; format: functional
Streptococcus mutans [15] = test: Antibacterial activity against Streptococcus mutans ATCC 25175 assessed as effect on planktonic growth at 21.9 ug/ml after 20 hrs relative to control; format: functional
Staphylococcus aureus [16] = test: Antibacterial activity against Staphylococcus aureus ATCC 25923 assessed as effect on planktonic growth at 2.73 ug/ml after 20 hrs relative to control; format: functional
Pseudomonas aeruginosa [17] = test: Antibacterial activity against Pseudomonas aeruginosa ATCC 27853 assessed as effect on planktonic growth at 43.8 ug/ml after 20 hrs relative to control; format: functional
Streptococcus mutans [18] = test: Antibacterial activity against Streptococcus mutans ATCC 25175 assessed as effect on planktonic growth at 1.37 ug/ml after 20 hrs relative to control; format: functional
[19] = test system: Staphylococcus epidermidis; test: Antibacterial activity against Staphylococcus epidermidis ATCC 35547 assessed as effect on planktonic growth at 21.9 ug/ml after 20 hrs relative to control; format: functional
Streptococcus mutans [20] = test: Antibacterial activity against Streptococcus mutans ATCC 25175 assessed as effect on planktonic growth at 10.9 ug/ml after 20 hrs relative to control; format: functional
[21] = test system: Staphylococcus epidermidis; test: Antibacterial activity against Staphylococcus epidermidis ATCC 35547 assessed as effect on planktonic growth at 5.5 ug/ml after 20 hrs relative to control; format: functional
Staphylococcus aureus [22] = test: Antibacterial activity against Staphylococcus aureus ATCC 25923 assessed as effect on planktonic growth at 0.34 ug/ml after 20 hrs relative to control; format: functional
[23] = test system: Staphylococcus epidermidis; test: Antibacterial activity against Staphylococcus epidermidis ATCC 35547 assessed as effect on planktonic growth at 0.34 ug/ml after 20 hrs relative to control; format: functional
Streptococcus mutans [24] = test: Antibacterial activity against Streptococcus mutans ATCC 25175 assessed as effect on planktonic growth at 87.5 ug/ml after 20 hrs relative to control; format: functional
Pseudomonas aeruginosa [25] = test: Antibacterial activity against Pseudomonas aeruginosa ATCC 27853 assessed as effect on planktonic growth at 5.5 ug/ml after 20 hrs relative to control; format: functional
[26] = test system: Staphylococcus epidermidis; test: Antibacterial activity against Staphylococcus epidermidis ATCC 35547 assessed as effect on planktonic growth at 0.17 ug/ml after 20 hrs relative to control; format: functional
Staphylococcus aureus [27] = test: Antibacterial activity against Staphylococcus aureus ATCC 25923 assessed as effect on planktonic growth at 21.9 ug/ml after 20 hrs relative to control; format: functional
Pseudomonas aeruginosa [28] = test: Antibacterial activity against Pseudomonas aeruginosa ATCC 27853 assessed as effect on planktonic growth at 0.17 ug/ml after 20 hrs relative to control; format: functional
Staphylococcus aureus [29] = test: Antibacterial activity against Staphylococcus aureus ATCC 25923 assessed as effect on planktonic growth at 0.17 ug/ml after 20 hrs relative to control; format: functional
Streptococcus mutans [30] = test: Antibacterial activity against Streptococcus mutans ATCC 25175 assessed as effect on planktonic growth at 0.68 ug/ml after 20 hrs relative to control; format: functional
Streptococcus mutans [31] = test: Antibacterial activity against Streptococcus mutans ATCC 25175 assessed as effect on planktonic growth at 2.73 ug/ml after 20 hrs relative to control; format: functional
Streptococcus mutans [32] = test: Antibacterial activity against Streptococcus mutans ATCC 25175 assessed as effect on planktonic growth at 5.5 ug/ml after 20 hrs relative to control; format: functional
Pseudomonas aeruginosa [33] = test: Antibacterial activity against Pseudomonas aeruginosa ATCC 27853 assessed as effect on planktonic growth at 2.73 ug/ml after 20 hrs relative to control; format: functional
Pseudomonas aeruginosa [34] = test: Antibacterial activity against Pseudomonas aeruginosa ATCC 27853 assessed as effect on planktonic growth at 21.9 ug/ml after 20 hrs relative to control; format: functional
Staphylococcus aureus [35] = test: Antibacterial activity against Staphylococcus aureus ATCC 25923 assessed as effect on planktonic growth at 87.5 ug/ml after 20 hrs relative to control; format: functional
Streptococcus mutans [36] = test: Antibacterial activity against Streptococcus mutans ATCC 25175 assessed as effect on planktonic growth at 0.34 ug/ml after 20 hrs relative to control; format: functional
Pseudomonas aeruginosa [37] = test: Antibacterial activity against Pseudomonas aeruginosa ATCC 27853 assessed as effect on planktonic growth at 1.37 ug/ml after 20 hrs relative to control; format: functional
Staphylococcus aureus [38] = test: Antibacterial activity against Staphylococcus aureus ATCC 25923 assessed as effect on planktonic growth at 5.5 ug/ml after 20 hrs relative to control; format: functional
[39] = test system: Staphylococcus epidermidis; test: Antibacterial activity against Staphylococcus epidermidis ATCC 35547 assessed as effect on planktonic growth at 1.37 ug/ml after 20 hrs relative to control; format: functional
Pseudomonas aeruginosa [40] = test: Antibacterial activity against Pseudomonas aeruginosa ATCC 27853 assessed as inhibition of biofilm formation after 20 hrs by crystal-violet staining method; format: functional, organism-based; settings: for IC50: ATCC 27853, 20 h
Staphylococcus aureus [41] = test: Antibacterial activity against Staphylococcus aureus ATCC 25923 assessed as effect on planktonic growth at 1.37 ug/ml after 20 hrs relative to control; format: functional
[42] = test system: Staphylococcus epidermidis; test: Antibacterial activity against Staphylococcus epidermidis ATCC 35547 assessed as effect on planktonic growth at 2.73 ug/ml after 20 hrs relative to control; format: functional

COc1cccc(/C=C2/C(c3cc(Cl)ccc3OC)=C(Br)C(=O)N2CC(C)C)c1
inhibition [1]: Dose-dependent effect | IC50 [1]: 41 µg/mL (≈ 86 µM) | Activity (Streptococcus mutans [2]): 12.3% | Activity (Pseudomonas aeruginosa [3]): -15.5% | Activity (Pseudomonas aeruginosa [4]): 1% | Activity (Staphylococcus aureus [5]): -9.6% | Activity [6]: 24.6% | Activity (Staphylococcus aureus [7]): -7.2% | Activity [8]: 5.5% | Activity (Pseudomonas aeruginosa [9]): -2.1% | Activity [10]: 35.5% | Activity [11]: 0.9% | Activity (Pseudomonas aeruginosa [12]): 2.8% | Activity (Streptococcus mutans [13]): -19.6% | Activity (Staphylococcus aureus [14]): -11.3% | Activity (Streptococcus mutans [15]): 6.2% | Activity (Staphylococcus aureus [16]): -13.7% | Activity (Pseudomonas aeruginosa [17]): -8.9% | Activity (Streptococcus mutans [18]): -4.4% | Activity [19]: 11.3% | Activity (Streptococcus mutans [20]): 1.2% | Activity [21]: -2.3% | Activity (Staphylococcus aureus [22]): -3% | Activity [23]: -0.7% | Activity (Streptococcus mutans [24]): 30.8% | Activity (Pseudomonas aeruginosa [25]): -9.1% | Activity [26]: 5.8% | Activity (Staphylococcus aureus [27]): 7.2% | Activity (Pseudomonas aeruginosa [28]): 3.2% | Activity (Staphylococcus aureus [29]): -2.6% | Activity (Streptococcus mutans [30]): -17.3% | Activity (Streptococcus mutans [31]): -6.5% | Activity (Streptococcus mutans [32]): 2.6% | Activity (Pseudomonas aeruginosa [33]): 0.2% | Activity (Pseudomonas aeruginosa [34]): -10% | Activity (Staphylococcus aureus [35]): 13% | Activity (Streptococcus mutans [36]): -18.2% | Activity (Pseudomonas aeruginosa [37]): 0.8% | Activity (Staphylococcus aureus [38]): -3.5% | Activity [39]: -2.6% | inhibition (Pseudomonas aeruginosa [40]): Dose-dependent effect | IC50 (Pseudomonas aeruginosa [40]): > 87.5 µg/mL | Activity (Staphylococcus aureus [41]): -5.7% | Activity [42]: -3.8%

COc1ccc(Br)cc1C1=C(Br)C(=O)O/C1=C\c1ccc(Br)cc1
inhibition [1]: Dose-dependent effect | IC50 [1]: 41.3 µg/mL (≈ 80.2 µM) | Activity (Streptococcus mutans [2]): -11.3% | Activity (Pseudomonas aeruginosa [3]): -17.6% | Activity (Pseudomonas aeruginosa [4]): -1.8% | Activity (Staphylococcus aureus [5]): 0.8% | Activity [6]: 22.1% | Activity (Staphylococcus aureus [7]): 15.8% | Activity [8]: -0.2% | Activity (Pseudomonas aeruginosa [9]): -12.9% | Activity [10]: 31.9% | Activity [11]: -1.5% | Activity (Pseudomonas aeruginosa [12]): -1.9% | Activity (Streptococcus mutans [13]): 4.5% | Activity (Staphylococcus aureus [14]): 13.1% | Activity (Streptococcus mutans [15]): 4% | Activity (Staphylococcus aureus [16]): 5.6% | Activity (Pseudomonas aeruginosa [17]): -12.1% | Activity (Streptococcus mutans [18]): 12.3% | Activity [19]: 3.9% | Activity (Streptococcus mutans [20]): 7.2% | Activity [21]: 1% | Activity (Staphylococcus aureus [22]): 0.5% | Activity [23]: 0.6% | Activity (Streptococcus mutans [24]): -13.5% | Activity (Pseudomonas aeruginosa [25]): -22% | Activity [26]: 8.1% | Activity (Staphylococcus aureus [27]): 23.1% | Activity (Pseudomonas aeruginosa [28]): -1.8% | Activity (Staphylococcus aureus [29]): -1.6% | Activity (Streptococcus mutans [30]): 7% | Activity (Streptococcus mutans [31]): 15% | Activity (Streptococcus mutans [32]): 10.3% | Activity (Pseudomonas aeruginosa [33]): -19.2% | Activity (Pseudomonas aeruginosa [34]): -15.1% | Activity (Staphylococcus aureus [35]): 9.4% | Activity (Streptococcus mutans [36]): 3.8% | Activity (Pseudomonas aeruginosa [37]): -8.6% | Activity (Staphylococcus aureus [38]): 8.3% | Activity [39]: -2.2% | inhibition (Pseudomonas aeruginosa [40]): Dose-dependent effect | IC50 (Pseudomonas aeruginosa [40]): > 87.5 µg/mL | Activity (Staphylococcus aureus [41]): 6.7% | Activity [42]: 4.5%

COc1ccc(Br)cc1C1=C(Br)C(=O)N(CC(C)C)/C1=C/c1cccc(Cl)c1
inhibition [1]: Dose-dependent effect | IC50 [1]: 46.7 µg/mL (≈ 88.8 µM) | Activity (Streptococcus mutans [2]): 2.5% | Activity (Pseudomonas aeruginosa [3]): -7% | Activity (Pseudomonas aeruginosa [4]): 3.4% | Activity (Staphylococcus aureus [5]): -19.6% | Activity [6]: 56.1% | Activity (Staphylococcus aureus [7]): -11.9% | Activity [8]: 4.8% | Activity (Pseudomonas aeruginosa [9]): 15.5% | Activity [10]: 70.2% | Activity [11]: 10.8% | Activity (Pseudomonas aeruginosa [12]): -3.3% | Activity (Streptococcus mutans [13]): 6% | Activity (Staphylococcus aureus [14]): -5.2% | Activity (Streptococcus mutans [15]): -7.5% | Activity (Staphylococcus aureus [16]): -14% | Activity (Pseudomonas aeruginosa [17]): -3.2% | Activity (Streptococcus mutans [18]): 15.3% | Activity [19]: 27.7% | Activity (Streptococcus mutans [20]): 8.3% | Activity [21]: 21.1% | Activity (Staphylococcus aureus [22]): -17.1% | Activity [23]: 4.9% | Activity (Streptococcus mutans [24]): -7.3% | Activity (Pseudomonas aeruginosa [25]): -4% | Activity [26]: 2.1% | Activity (Staphylococcus aureus [27]): -13.1% | Activity (Pseudomonas aeruginosa [28]): 1.8% | Activity (Staphylococcus aureus [29]): -18.7% | Activity (Streptococcus mutans [30]): -6.5% | Activity (Streptococcus mutans [31]): 12.6% | Activity (Streptococcus mutans [32]): 2.8% | Activity (Pseudomonas aeruginosa [33]): 4.7% | Activity (Pseudomonas aeruginosa [34]): -4.5% | Activity (Staphylococcus aureus [35]): 12.8% | Activity (Streptococcus mutans [36]): 7% | Activity (Pseudomonas aeruginosa [37]): 5% | Activity (Staphylococcus aureus [38]): -16% | Activity [39]: 1% | inhibition (Pseudomonas aeruginosa [40]): Dose-dependent effect | IC50 (Pseudomonas aeruginosa [40]): > 87.5 µg/mL | Activity (Staphylococcus aureus [41]): -17.8% | Activity [42]: 11.4%
